Laboratory results from patent US9878054B2, “Polypeptide and lipophilic moiety conjugate compositions, formulations, and uses related thereto” (Tufts Medical Center, Inc., priority 2012, dated 2018).
Where a SMILES comes first, the peptide text is derived from it. The star is where a group is joined. Palmitoyl = CCCCCCCCCCCCCCCC(=O)*

Assays:
[1] = target: T1, PAR4 (Homo sapiens, UniProt Q96RI0); test: Human platelet aggregation, PAR4 agonist AYPGKF; type: cell-based; conditions: human platelets; 200 μM AYPGKF
T1 construct: Platelets were isolated from platelet rich plasma (PRP) using Sepharose 2B columns; endogenous in cells; host or cells: human platelets from healthy donors, gel-filtered
T1 sequence (Q96RI0 18-385): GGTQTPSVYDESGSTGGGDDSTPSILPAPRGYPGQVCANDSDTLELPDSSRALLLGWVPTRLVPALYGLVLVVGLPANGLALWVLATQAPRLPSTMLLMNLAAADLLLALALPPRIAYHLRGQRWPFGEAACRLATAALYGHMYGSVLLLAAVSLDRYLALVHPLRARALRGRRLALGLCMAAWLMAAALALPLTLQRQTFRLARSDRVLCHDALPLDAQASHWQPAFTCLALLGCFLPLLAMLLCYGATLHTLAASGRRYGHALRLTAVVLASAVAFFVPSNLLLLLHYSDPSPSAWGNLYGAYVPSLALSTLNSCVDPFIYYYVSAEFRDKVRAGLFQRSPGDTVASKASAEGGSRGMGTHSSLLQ
Method: A, Depiction of the mechanism of action of the cell-penetrating PZ-128 pepducin compound targeting the third intracellular loop (red) of PAR1. B, The NMR structure of PZ-128 was determined by simulated annealing methods using 210 distance restraints and included restraints to the proximal 3 hydrocarbons of the lipid. […] D, PZ-128 inhibits PAR1-dependent platelet aggregation. Gel filtered human platelets were treated with various concentrations of PZ-128 and then challenged with the PAR1 agonist SFLLRN (2.5 μM), 20 μM ADP, 200 μM AYPGKF or 1 mg/ml Ristocetin. E, Human platelets were treated with 3 μM PZ-128, 3 μM RWJ-56110, or 5% dextrose vehicle before the addition of various concentrations of thrombin (n=3-5).
PZ-128 also markedly right-shifted thrombin-induced aggregation by 5-fold. By comparison, the small molecule RWJ-56110 which antagonizes PAR1 at the extracellular ligand-binding site gave a 2-fold right shift in the thrombin activation curve of human platelets.
Whole blood from healthy donors was collected into a 30 ml syringe containing sodium citrate (0.4% vol/vol final). Platelets were isolated from platelet rich plasma (PRP) using Sepharose 2B columns in modified PIPES buffer.

[2] = system: PAR1; test: Guinea pig ex vivo platelet aggregation to SFLLRN after iv infusion; type: in vivo; conditions: 3 and 6 mg/kg, 10 min iv infusion, 15 min time point, 2.5 μM SFLLRN
Method: (§1) PZ-128 or 5% dextrose USP vehicle was infused for 10 min into the jugular vein of male and female guinea pigs (0.55-0.65 kg). A-C, At the 15 min time point, whole blood was collected by cardiac puncture in 100 μg/ml PPACK/4% Na-citrate (final) anti-coagulant and platelet rich plasma (PRP) prepared and aggregation measurements were performed. […] B-C, PRP obtained at the 15 min time point after infusion with vehicle, 3 mg/kg PZ-128 or 6 mg/kg PZ128 was challenged with 2.5 μM SFLLRN, 20 μM ADP or 20 μM thromboxane mimetic, U46119. Individual data points (n=3) are overlayed on bar graphs depicting mean±SD. […] Data in B-D were analyzed by the non-parametric Kruskal-Wallis test with the Dunn's multiple pairwise comparison post-test.
(§2) PZ-128 micelles were delivered by internal jugular vein infusions over 10 min.
(§3) Guinea pigs weighing 600-650 g were used for platelet aggregation experiments. PZ-128 micelles (3 or 6 mg/kg) were administered by a 10 min intravenous infusion, and blood was collected by cardiac puncture into sodium citrate (0.4% vol/vol final) 5 minutes after cessation of the infusion. PRP was prepared and PPACK added to a final concentration of 100 μg/ml. PRP was calcified with 2.5 mM CaCl2 and aggregation was performed as described above.

[3] = Solubility of lyophilized PZ-128 after reconstitution (visual inspection); type: physicochemical
Method: Column recovered fractions containing PZ-128 ammonium salts were lyophilized by using the following procedure: 5 mL of elute from reverse phase column cartridge was place into a 15-mL vial; the sample frozen in dry ice-isopropanol bath for 5 minutes with swirling until completely frozen, the temperature should be about −35 to −45° C. and the vacuum pressure should be about 60-100×10^−3 mBar; frozen samples/vials are places in a 0.5-1 L lyophilization glass container; open the chamber to the vacuum pump where the vacuum pressure should rise and then come back to 100-200×10^−3 M Bar until drying is complete; and the sample is stored at −20° C. The product of the first PZ-128 lyophilization was dissolved in pure water and lyophilized a second time.
The different excipients listed in Table 1 were added to 10×500 μL aliquots of the fully soluble 1 mg/mL PZ-128 solution (product of the first lyophilization), mixed, froze, and lyophilization overnight. After lyophilization, the appearance of the dried lyophilizate was examined and the solubility determined after reconstitution with 100 μL water to 5 mg/mL PZ-128 salt product.
The appearances of each of the samples after a second lyophilization from water with the different excipients are listed in Table 1. […]

[4] = PT, aPTT, bleeding and plasma levels in cynomolgus monkeys after daily iv infusions; type: in vivo; conditions: cynomolgus monkey
Method: PZ-128 micelles were also administered daily for 4 days to adult male and female cynomolgus monkeys with 1 h iv infusions of 3 mg/kg, 10 mg/kg and 30 mg/kg PZ-128. Coagulation parameters prothrombin time (PT) and activated partial thromboplastin time (aPTT) were unaffected in all monkeys at 3-30 mg/kg PZ-128 at either day 1 and day 5 as compared to baseline or vehicle-treated animals (Table 2).
PZ-128 micelles (0, 3, 10 or 30 mg/kg) were administered intravenously to 2.5-4.5 kg male and female cynomolgus monkeys by infusion over 1 h at MPI Laboratories (Mattawan, Mich.). Peripheral venous blood was collected from cynomolgus monkeys into K3EDTA anticoagulant at baseline (Day −8) and at two time points (Day 1 and Day 5) after daily 1-h intravenous PZ-128 micelle infusions on days 1-4. PT and aPTT were analyzed immediately on a MLA-800 coagulation analyzer.

[5] = system: guinea pig carotid artery thrombosis; test: Guinea pig carotid artery FeCl3 injury arterial thrombosis model; type: in vivo
Method: A carotid artery FeCl3 injury model was used in guinea pigs to assess the anti-thrombotic efficacy of PZ-128 micelles within 15 min of initiation of drug administration. FeCl3 denudes the artery and exposes type I collagen and other subendothelial matrix proteins to initiate platelet-dependent thrombosis. Guinea pigs received 10 min intravenous infusions of PZ-128 micelles, 5 min prior to carotid artery injury. […] Mean occlusion times increased by 4-fold to 40 min at doses above 0.05 mg/kg PZ-128.
Male Hartley guinea pigs (150˜220 g) were purchased from Charles River Laboratories. A 0.61 mm-diameter catheter was inserted into the left jugular vein of anesthetized animals for administration of infusions of 5% USP dextrose vehicle or PZ-128 micelles. A 0.5 V-Doppler probe (Transonic Systems, Ithaca, N.Y.) was placed around the right carotid artery to record blood flow. A range of doses of PZ-128 micelles from 0.05 to 1.6 mg/kg in 0.9 ml volumes were delivered at an injection rate of 0.09 ml/min by a Harvard syringe pump. Five minutes after the infusion ended, arterial thrombosis was induced by placing a 5×5 mm^2 piece of filter paper soaked in freshly made 20% FeCl3 solution on the right carotid artery 5 mm distal to the probe for 20 minutes. […] To examine possible synergistic effects of PZ-128 micelles and P2Y12-ADP receptor inhibition, 1 mg/kg clopidogrel was administered by oral gavage 4 hours prior to FeCl3 injury. In these synergy experiments, the maximum endpoint was set at 90 minutes for occlusion time.

[6] = system: guinea pig platelets (thromboxane mimetic U46119); test: Guinea pig ex vivo platelet aggregation to thromboxane mimetic U46119 after iv infusion; type: in vivo; conditions: 3 or 6 mg/kg iv, 20 μM U46119
Method: as §1, §2, §3

[7] = 3-30 mg/kg, 1 h iv infusion daily for 4 days, day 1 and day 5

Inhibitory activity against PAR4 (AYPGKF) aggregation [1]: no inhibitory activity | Solubility of product of second lyophilization from pure water ([3]; 5 mg/mL, tested formulations including 100% water): did not solubilize | Solubility of micelles after filtration and second lyophilization with ammonium acetate ([3]; 100% water and 5% dextrose/water at 5 mg/mL): readily soluble | Cmax ([4]; both sexes, plasma, up to 30 mg/kg iv infusion): > 200 µM | Activated partial thromboplastin time (aPTT) [4, 7]: unaffected | Prothrombin time (PT) [4, 7]: unaffected
Structure (SMILES): CCCCCCCCCCCCCCCC(=O)N[C@@H](CCCCN)C(=O)N[C@@H](CCCCN)C(=O)N[C@@H](CO)C(=O)N[C@@H](CCCNC(=N)N)C(=O)N[C@@H](C)C(=O)N[C@@H](CC(C)C)C(=O)N[C@@H](Cc1ccccc1)C(N)=O [PZ-128, palmitate-KKSRALF-NH2] (Palmitoyl-KKSRALF-NH2)
Inhibition of ex vivo platelet aggregation to SFLLRN [2]: significant, dose-dependent inhibition | Spontaneous, venous access, or retinal bleeding ([4]; 3-30 mg/kg daily iv): No spontaneous, venous access, or retinal bleeding was observed | EC50, protection against arterial occlusion ([5]; 10 min iv infusion 5 min prior to FeCl3 carotid injury): 0.075 mg/kg | Increase of mean occlusion time ([5]; doses above 0.05 mg/kg): 4 fold | Mean occlusion time ([5]; doses above 0.05 mg/kg): 40 min | Protection against arterial occlusion when used alone ([5]; sub-therapeutic dose alone (PZ-128 0.05 mg/kg; clopidogrel 1 mg/kg PO)): non-significant protection | Effect on ex vivo aggregation to thromboxane mimetic U46119 [6]: no effect
